This is an account of results in patent US20250215016A1, “ISOXAZOLE-HETEROCYCLIC DERIVATIVE, PHARMACEUTICAL COMPOSITION AND USE” (SHANGHAI SIMR BIOTECHNOLOGY CO., LTD, priority 2022, published 2025).

The target in data set [1] is human α2β3γ2 receptor (α2-GABAA receptor) (Homo sapiens (Human), UniProt P18507+P47869). The experiment in a line: Radioligand (3H-flunitrazepam) competition binding assay, BZD site; α2 vs α5 binding selectivity. The settings on record: ratio of Ki at α2β3γ2 to Ki at α5β3γ2. An excerpt:
(§1) α, β and γ subunits are essential for the formation of a complete functional GABAA receptor. In this example, HEK293 cell strains stably expressing human α5-GABAA receptor (comprising α5β3γ2 subunit) and α2-GABAA receptor (comprising α2β3γ2 subunit) were constructed and screened, respectively, by liposome transfection method (Felgner, P. L., et al., Proceedings of the National Academy of Sciences, 1987, 84:7413-7417). The specific subunit protein sequences are as follows: α5 subunit (protein sequence can be found in GenBank accession number: NM_000810.3); α2 subunit (protein sequence can be found in GenBank accession number: NM_000807.4); β3 subunit (protein sequence can be found in GenBank accession number: NM_000814.5); γ2 subunit (protein sequence can be found in GenBank accession number: NM_000816.3).
(§2) The above cell lines were subcultured. Amplification of α5β3γ2-HEK293 and α2β3γ2-HEK293 cells was used to test the affinity of the compounds to benzodiazepine site (BZD) of the GABAA receptor. During the passage of α5β3γ2-HEK293 cells, some of the suspended cells were spread on a glass slide pretreated with Poly-D-Lysine for electrophysiological testing.
(§3) Flunitrazepam is a non-specific reagent that binds to the BZD site efficiently. The affinity of the compounds to the BZD sites of the human α5β3γ2 and α2β3γ2 receptors can be determined by competing the compound with ^3H-flunitrazepam (isotope ^3H-labeled flunitrazepam) for binding to these two receptors.
(§4) Membrane preparation: HEK293 cells stably expressing human α5β3γ2 receptor or α2β3γ2 receptor were collected, suspended in 50 mM Tris-HCl buffer (pH=7.4), homogenized on ice by a homogenizer for 20 seconds 10 times, and centrifuged at 4° C., 1000 g for 10 min. The supernatant was collected, and the above steps were repeated. The supernatant was centrifuged (33800 g; centrifuge purchased from Thermo, rotor model: A27-8×50) at 4° C. for 60 min, and the precipitate was resuspended in Tris buffer (50 mM Tris-HCl, 10 mM MgCl2, 0.5 mM EDTA, 10% glycerol). The precipitate was the cell membrane. Protein content was determined by BCA (Bicinchoninic Acid) method (BCA kit from Pierce (Annoron)). The cell membrane was prepared into 1 ml aliquot and stored at −80° C.
(§5) Radioligand competition binding assay: the assay was carried out in a 200 μL system (96-well plate from Agilent) with 100 μL of cell membrane. The concentration of ^3H-flunitazepam (from PerkinElmer, lot: NET567250 UC) was 1 nM and the concentration of test compound was in the range 1×10^−5-10^−6 M. Flumazenil (from Tocris; lot: 1318) was used as a control. 1 μL of 2 mM flumazenil (final concentration 10 μM) was added to the Low signal control well (Low control, LC) and 1 μL of DMSO (from Sigma aldrich, lot: 472301) was added to the High signal control well (High control, HC). The final target membrane protein concentration was 5 μg/well. All test compound sample stocks were 10 mM DMSO solutions. The working concentration of the samples is to dilute all samples with DMSO to 0.2 mM, and then perform 4-fold continuous gradient dilution for a total of 8 concentration gradients. The 96-well plate was sealed with a plate sealing membrane and then incubated on a shaker at room temperature for 1 hour. Meanwhile, GF/C filter plate was soaked with a plate soaking buffer (0.3% PEI, polyethyleneimine, purchased from Sigma aldrich, model: P314, stored at 4° C.) for at least 0.5 hours. After completion of binding incubation, the cells were collected with a cell collector onto the GF/C filter plate and washed four times with a plate washing buffer (50 mM Tris-HCl, pH 7.4, stored at 4° C.). […]

In data set [2] the target is human α5β3γ2 receptor (α5-GABAA receptor) (Homo sapiens (Human), UniProt P18507+P31644). As to the kind of experiment: Radioligand (3H-flunitrazepam) competition binding assay, BZD site. The settings on record: 3H-flunitrazepam 1 nM; HEK293 membranes expressing human α5β3γ2.
Description: as §1, §2, §3, §4, §5

Another data set concerns the target α5-GABAA receptor (Homo sapiens (Human), UniProt P18507+P31644). The experiment in a line: Whole-cell patch clamp electrophysiology, inverse regulation activity in α5β3γ2-HEK293 cells. The format is cell-based. The settings on record: compound 100 nM; GABA 0.05-0.06 μM (about EC7-8); clamped at −60 mV; read-out: Inverse regulation efficiency to α5-GABAA receptor.
Description: α, β and γ subunits are essential for the formation of a complete functional GABAA receptor. […] The specific subunit protein sequences are as follows: α5 subunit (protein sequence can be found in GenBank accession number: NM_000810.3); α2 subunit (protein sequence can be found in GenBank accession number: NM_000807.4); β3 subunit (protein sequence can be found in GenBank accession number: NM_000814.5); γ2 subunit (protein sequence can be found in GenBank accession number: NM_000816.3).
as §2
The inverse regulation activity of the test drugs on α5-GABAA receptor was detected by an electrophysiological method. The specific method was as follows:
Compound concentration setting: the final concentration of the compounds used for compound screening was 100 nM. GABA concentration was 0.05-0.06 μM (about EC7-8). […] The extracellular fluid (ECS) ingredients for electrophysiology were as follows: 150 mM NaCl, 5 mM KCl, 2.5 mM CaCl2, 1 mM MgCl2, 10 mM HEPES and 10 mM glucose (pH 7.4); the electrode internal solution (ICS) formula for electrophysiology was as follows: 140 mM CsCl, 11 mM EGTA, 10 mM HEPES, 2 mM CaCl2, 1 mM MgCl2, 4 mM MgATP, 2 mM TEA (pH 7.3). The above reagents were all purchased from Sigma aldrich. GABA (γ-aminobutyric acid, from sigma aldrich, lot: A5385) powder was prepared into a stock solution with pure water and then diluted in ECS. The compound was first prepared into a 4 mM stock solution with DMSO, and then gradually diluted in corresponding concentrations of GABA-ECS. The solutions were all prepared fresh prior to electrophysiological testing.
Electrophysiological signal acquisition were performed by using EPC 10 amplifier and PatchMaster software (HEKA) or Axon 700 B amplifier and Clampex software (AXON). The recording electrode was made by drawing borosilicate glass (purchased from sutter), and has an electrode resistance of 4˜6 MΩ. Extracellular administration was carried out using ALA-VC-8PG (purchased from ALA, USA) system. A single independently grown cell was selected, and lysis was performed after the glass electrode and the cell forming a good seal, to form a whole cell mode. With the cellular membrane potential clamped at −60 mV, recording was carried out in the Gap-free mode. For the test, extracellular fluid was first applied extracellularly for about 20 seconds. After baseline (Iprebaseline) was stabilized, the extracellular fluid was switched to GABA-ECS. At this time, the current (Igaba) caused by GABA can be detected. At about 20-40 seconds, after the current stabilized, the extracellular fluid was switched to a mixed solution of the compound and GABA-ECS, until the current (Itreatment) caused by both the compound and GABA can be detected. Finally, the solution was switched to the extracellular fluid and the test was terminated after recording for 20-40 seconds.
The experimental results were analyzed using PatchMaster v2x90.1 or PatchMaster v2x90.3 software (EPC 10 amplifier) and Clampex10.6 software (Axon700B amplifier). The current value of each stage was calculated according to the average value of the stabilized current under the corresponding conditions. We defined the control current as Igaba−Iprebaseline, and the current after compound treatment as Itreatment−Iprebaseline. The inverse regulation activity of the compounds is expressed as a percentage and is calculated according to the following formula: Inverse regulation efficiency=[(Itreatment−Igaba)/(Igaba−Iprebaseline)]×100%.
Background: The patch-clamp technique gives a direct electrical read-out from membranes.

Data set [3] is described as follows: Stability in simulated gastric fluid (SGF). Type of data set: physicochemical. The following applies: 37° C., 1000 rpm. As to the method:
Simulated gastric fluid (SGF), Manufacturer: Dongguan Chuangfeng Automation Technology Co., Ltd.; Product model: CF-006.
Oscillating constant temperature metal bath, Model: Thermo; Manufacturer: Digital Skaking Drybath.
Temperature: 37° C.; rotating speed: 1000 rpm; sampling time: 0, 4 hours.
Chromatographic column: Welch Xtimate C18 3.0×100 mm, 5 μm. Mobile phase: A: 0.04% trifluoroacetic acid (TFA)/H2O (v/v), B: acetonitrile (ACN). Gradient elution was performed according to the following table, flow rate: 1.0 mL/min; injection volume: 5 μL; column temperature: 35° C.; wavelength: 254 nm.
• (a) preparation of 0.04% TFA/H2O: 400 μL of TFA was measured, placed into 1 L of H2O, and homogenously mixed; • (b) Sample stock solution: about 3 mg of test sample was weighed, and prepared into a stock solution of 10 mmol/L using DMSO; • (c) 50 μL of the sample stock solution was taken, placed into a 5 mL volumetric flask, made up to the scale with the addition of SGF, and homogenously mixed. 400 μL of the solution was taken, four samples in parallel, and shaken at 1000 rpm and 37° C.; • (d) every two samples were taken after 0 and 4 hours respectively, 400 μL of acetonitrile was added, and homogenously mixed, followed by liquid phase injection, and calculation of the change % of the main peak area in the solution after 4 hours relative to 0 hour, two average value reports being taken at each time point.

Regarding `Cc1nnn(-c2ccc(C(F)F)cc2)c1COc1ccc(-n2cnc(C(F)F)c2)nn1` [WO2020016443A1, Example 15, reference compound], in data set [1], the “Selectivity α2 ki/α5 ki” value was determined as 7.67 folds.

As a reminder, the Ki is the equilibrium dissociation constant of an inhibitor or competing ligand from its target. Low values mean higher affinity, high ones lower affinity. The compound `Cc1cn2c(n1)CN(c1cnc(OCc3c(-c4ccc(F)cc4)noc3C)cn1)CC2` [Compound 46, 3-(4-fluorophenyl)-5-methyl-4-(((5-(2-methyl-5,6-dihydroimidazo [1,2-a]pyrazin-7(8H)-yl)pyrazin-2-yl)oxy)methyl)isoxazole] returned a Ki in data set [2] of 3.09 nM. For the same compound, the inhibition at 0.1 µM on α5-GABAA receptor worked out at 21%. Moreover, the “Residual content in simulated gastric juice after 4 hours (compared with 0 hour content)” value in data set [3] is listed as 87% (4 hours).

In the case of `Cc1onc(-c2ccc(F)cc2)c1COc1cnc(N2CCn3c(C)nnc3C2)cn1` [Compound 27], the Ki in data set [2] came out at 3.9 nM. Also, on α5-GABAA receptor, the inhibition at 0.1 µM was determined as 39%. Further, the “Residual content in simulated gastric juice after 4 hours (compared with 0 hour content)” value in data set [3] is on record as 63% (4 hours).

The compound `Cc1onc(-c2ccc(F)cc2)c1COc1ccc(-c2nnc3n2CCN(C)C3=O)cn1` [Compound 2, 3-(6-((3-(4-fluorophenyl)-5-methylisoxazol-4-yl)methoxy)pyridin-3-yl)-7-methyl-6,7-dihydro-[1,2,4]triazolo[4,3-a]pyrazin-8 (5H)-one] yielded a Ki in data set [2] of 7.7 nM. Moreover, on α5-GABAA receptor, the inhibition at 0.1 µM was found to be 29%. Also, the “Residual content in simulated gastric juice after 4 hours (compared with 0 hour content)” value in data set [3] is given as 46% (4 hours).

`Cc1onc(-c2ccc(F)cc2)c1COc1ccc(-n2nnc3c2CCOC3)cn1` [Compound 50, 1-(6-((3-(4-fluorophenyl)-5-methylisoxazol-4-yl)methoxy)pyridin-3-yl)-1,4,6,7-tetrahydropyran[3,4-d][1,2,3]triazole] returned a Ki in data set [2] of 8.63 nM. Further, the inhibition at 0.1 µM at α5-GABAA receptor was found to be 49%. The “Residual content in simulated gastric juice after 4 hours (compared with 0 hour content)” value in data set [3] is 82% (4 hours).

Regarding `Cc1onc(-c2ccc(F)cc2)c1COc1cnc(-c2cnn3c2COCC3)cn1` [Compound 44, 3-(5-((3-(4-fluorophenyl)-5-methylisoxazol-4-yl)methoxy)pyrazin-2-yl)-6,7-dihydro-4H-pyrazolo[5,1-c][1,4]oxazine], in data set [2], the affinity corresponds to a Ki of 0.99 nM. On α5-GABAA receptor, the inhibition at 0.1 µM was found to be 36%. Besides, the “Residual content in simulated gastric juice after 4 hours (compared with 0 hour content)” value in data set [3] is reported as 94% (4 hours).

In the case of `Cc1onc(-c2ccc(F)cc2)c1COc1cnc(N2CCn3ccnc3C2)cn1` [Compound 48, 4-(((5-(5,6-dihydroimidazo [1,2-a]pyrazin-7(8H)-yl)pyrazin-2-yl)oxy)methyl)-3-(4-fluorophenyl)-5-methylisoxazole], the Ki in data set [2] is 68.5 nM. Further, at α5-GABAA receptor, the inhibition at 0.1 µM was found to be 25%. Further, the “Residual content in simulated gastric juice after 4 hours (compared with 0 hour content)” value in data set [3] was 88% (4 hours).

The compound `Cc1onc(-c2ccc(F)cc2)c1COc1cnc(N2CCN3CCOC[C@@H]3C2)cn1` [Compound 40, (S)-8-(5-((3-(4-fluorophenyl)-5-methylisoxazol-4-yl)methoxy)pyrazin-2-yl) octahydropyrazino [2,1-c][1,4]oxazine] registered a Ki in data set [2] of 21.8 nM. Also, the inhibition at 0.1 µM on α5-GABAA receptor was determined as 18%. Moreover, the “Residual content in simulated gastric juice after 4 hours (compared with 0 hour content)” value in data set [3] was 98% (4 hours).

With `Cc1onc(-c2ccc(F)cc2)c1COc1ccc(N2CCN3CCOC[C@@H]3C2)nn1` [Compound 49, (S)-8-[6-((3-(4-fluorophenyl)-5-methylisoxazol-4-yl)methoxy)pyridazin-3-yl] octahydropyrazino[2,1-c][1,4]oxazine], in data set [2], the inhibition constant (Ki) was 3.84 nM. Further, the inhibition at 0.1 µM on α5-GABAA receptor is 37%. Also, the “Residual content in simulated gastric juice after 4 hours (compared with 0 hour content)” value in data set [3] is listed as 31% (4 hours).

On to `Cc1onc(-c2ccc(F)cc2)c1COc1cnc(-c2cnn3c2CCC3)cn1` [Compound 3], for which the Ki in data set [2] stood at 1.66 nM. Besides, the inhibition at 0.1 µM at α5-GABAA receptor stood at 24%. In data set [3], the “Residual content in simulated gastric juice after 4 hours (compared with 0 hour content)” value is given as 102% (4 hours).
